In publication PMC6381024, “Probing Anti-inflammatory Properties Independent of NF-κB Through Conformational Constraint of Peptide-Based Interleukin-1 Receptor Biased Ligands” (Frontiers in Chemistry, 2019):

Columns and labels:
JNK = assay: IL-1β-induced JNK phosphorylation, Western blot in RAW Blue cells; assay type: cell-based; design: key to Western Blot JNK (heatmap grade of inhibition): 0: No effect; No effect 01234 Maximum inhibition/efficacy; No effect 01234 Maximum inhibition/efficacy; No effect 01234 Maximum inhibition/efficacy; 4: Maximum inhibition/efficacy; details: for Western Blot JNK (heatmap grade of inhibition): RAW Blue cells, peptide 10^-6 M or Kineret 1.0 mg/mL 30 min, then IL-1β 100 ng/mL 15 min
Protocol: RAW Blue cells (Invivogen) were grown under standard conditions (37°C, 5% CO2) and maintained under passage number 15. Cells were equilibrated with 1, 5, or 6 (10^−6M) or Kineret (1.0 mg/mL) for 30 min, after which time they were exposed to IL-1β (100 ng/mL) for 15 min. Cells were harvested and lysed on ice for 30 min using a radioimmunoprecipitation assay buffer (Cell Signaling) supplemented with 1 mM phenylmethylsulfonyl fluoride (PMSF) and cOmplete™ EDTA-free protease inhibitor cocktail (Roche, Mannheim, Germany, prepared according to the manufacturer's instructions). Protein concentrations were determined using a Bradford protein assay (Bio-Rad) on 96-well plates with a microplate reader (EnVision Multilabel reader) measuring OD at […]. Bovine serum albumin serial dilutions were used to generate a standard curve. Lysates were then mixed with 4X reducing sample buffer (Bio-Rad).
Lysates were loaded (30 μg protein per well) in a 5% acrylamide stacking gel, and samples were electrophoresed in a 12% acrylamide resolving gel for 1.5 h at 120 V, followed by a 1 h transfer onto polyvinylidene difluoride (PDVF) membranes at 100 V. Membranes were blocked and incubated with 1:1,000 dilution of primary antibody and 1:20,000 dilution of secondary antibodies according to the manufacturer's instructions. Antibodies used were for phospho-p38 MAPK (Cell Signaling, #9211), p38 MAPK (Cell Signaling, #9212), SAPK/JNK (Cell Signaling, #9252), phospho-SAPK/JNK (Cell Signaling, #9251), ROCK2 (Thermo Fisher Scientific PA5-21131), phospho-ROCK2 (Thermo Fisher Scientific PA5-34895), and goat anti-rabbit conjugated to horseradish peroxidase (Abcam, ab6721). Membranes were imaged using an Amersham Imager 600 (GE Healthcare) using Clarity Western ECL Substrate (Bio-Rad). The intensity of protein bands was quantified using ImageJ and standardized using total (phosphorylated + non-phosphorylated) protein content. Data are representative of three independent experiments.
Figure 7 The effects of peptides 1, 5, and 6 on IL-1β-induced phosphorylation of JNK, ROCK2, and p38. Graphical representations of band density analysis of Western Blots, sorted into columns based on protein of interest (JNK, ROCK2, or p38) and rows by peptide configuration [(3R-) or (3S)]. RAW-blue cells were pretreated with peptides 1, 5, 6, Kineret, or vehicle for 30 min and then stimulated with IL-1β for 15 min. Images of representative Western Blots can be found in the Supplementary Figure 1. Results shown are the average of 3 independent experiments: ^*p < 0.05, ^**p < 0.01, ^***p < 0.001, ^****p < 0.0001 compared to group treated only with IL-1β. Treatment groups that are not labeled with asterisks are statistically non-significant compared to group treated only with IL-1β.

COX2 = assay: qPCR of IL-1β-induced COX-2 (PTGHS2) expression in HEK-Blue IL-33/IL-1β cells; assay type: cell-based, human; design: key to qPCR COX2 (heatmap grade of inhibition): 0: No effect; No effect 01234 Maximum inhibition/efficacy; No effect 01234 Maximum inhibition/efficacy; No effect 01234 Maximum inhibition/efficacy; 4: Maximum inhibition/efficacy; details: for qPCR COX2 (heatmap grade of inhibition): HEK-Blue cells, peptide 10^-6 M or Kineret 1.0 mg/mL 30 min, then IL-1β 100 ng/mL 4 h (legend: overnight); for Suppression of COX2 transcription: HEK blue cells, 10^-6 M pre-treatment, IL-1β stimulation
Protocol: HEK-Blue IL-33/IL-1β cells were purchased from InvivoGen (San Diego, CA) and used at passages under 15. HEK-Blue cells were cultured in DMEM growth medium supplemented with 10% serum, 50 U/mL penicillin, […] streptomycin, […] zeocin, and […] hygromycin. Cells were grown in regular conditions (37°C, 5% CO2). Cells were serum starved overnight and treated with 100 ng/mL IL-1β for 4 h. Cells were pre-incubated for 30 min with peptides 1, 5, or 6 (10^−6M) or Kineret (1.0 mg/mL) prior to the experiments to reach equilibrium (n = 4 each treatment). Cells were harvested and incubated for 5 min in RIBOzol (AMRESCO). RNA was extracted according to manufacturer's protocol and RNA concentration and integrity were measured with a NanoDrop 1,000 spectrophotometer. A total of 500 ng RNA was used to synthetize cDNA using iScript Reverse Transcription SuperMix (Bio-Rad, Hercules, CA). Quantitative gene expression analysis was performed on Stratagene MXPro3000 (Stratagene) with SYBR Green Master Mix (Bio-Rad). Gene expression levels were normalized to 18S universal primer (Ambion Life Technology, Burlington ON, Canada). Genes analyzed include IL1β, IL6, and PTGHS2 [Prostaglandin H synthetase 2 or cyclooxygenase-2 (COX-2)]. Data are representative of 3 experiments (each with n = 4 per treatment group).
Figure 8 The effects of peptides 1, 5, and 6 on the expression of pro-inflammatory genes. HEK-Blue cells were pre-treated with peptides 1, 5, and 6 as above and stimulated with IL-1β overnight. qPCR was performed on cell lysates using 18S rRNA as internal control. Graphs are sorted in columns by gene of interest (COX-2, IL-1β, or IL-6) and rows by peptide configuration [(3R) or (3S)]. Results are representative of an average of 3 independent experiments (each with n = 4 per treatment group) and are expressed as a fold-change of the non-stimulated control: ^*p < 0.05, ^**p < 0.01, ^***p < 0.001, ^****p < 0.0001 compared to group treated only with IL-1β. Treatment groups that are not labeled with asterisks are statistically non-significant compared to group treated only with IL-1β.

Row | Substance | Western Blot JNK (heatmap grade of inhibition) (JNK) | qPCR COX2 (heatmap grade of inhibition) (COX2) | Suppression of COX2 transcription (COX2) | Inhibition of IL-1β-induced JNK phosphorylation (JNK; RAW-blue cells, 10^-6 M, 30 min, then IL-1β 15 min)
1 | H-D-Arg-D-Tyr-(3R,4R)-Hgl-(S)-Val-D-Glu-D-Leu-D-Ala-NH2 [[(3R,4R)-Hgl^3-(S)-Val^4]-1] | 1 | 4 | – | –
2 | H-D-Arg-D-Tyr-(3R,4R)-Hgl-D-Val-D-Glu-D-Leu-D-Ala-NH2 [[(3R,4R)-Hgl^3]-1] | 0 | 4 | – | –
3 | H-D-Arg-D-Tyr-(3R,4S)-Hgl-(S)-Val-D-Glu-D-Leu-D-Ala-NH2 [[(3R,4S)-Hgl^3-(S)-Val^4]-1] | 2 | 4 | – | –
4 | H-D-Arg-D-Tyr-(3R,4S)-Hgl-D-Val-D-Glu-D-Leu-D-Ala-NH2 [[(3R,4S)-Hgl^3]-1] | 4 | 4 | – | –
5 | H-D-Arg-D-Tyr-(3S,4R)-Hgl-D-Val-D-Glu-D-Leu-D-Ala-NH2 [[(3S,4R)-Hgl^3]-1] | 3 | 4 | – | –
6 | H-D-Arg-D-Tyr-(R)-Agl-(S)-Val-D-Glu-D-Leu-D-Ala-NH2 [[(3R)-Agl^3-(S)-Val^4]-1] | 0 | 1 | ability to suppress the transcription of all three genes was lost | –
7 | H-D-Arg-D-Tyr-(R)-Agl-D-Val-D-Glu-D-Leu-D-Ala-NH2 [[(3R)-Agl^3]-1] | 4 | 3 | – | –
8 | H-D-Arg-D-Tyr-(S)-Agl-(S)-Val-D-Glu-D-Leu-D-Ala-NH2 [[(3S)-Agl^3-(S)-Val^4]-1] | 0 | 1 | ability to suppress the transcription of all three genes was lost | –
9 | H-D-Arg-D-Tyr-(S)-Agl-D-Val-D-Glu-D-Leu-D-Ala-NH2 [[(3S)-Agl^3]-1] | 4 | 4 | – | –
10 | H-D-Arg-D-Tyr-D-Thr-D-Val-D-Glu-D-Leu-D-Ala-NH2 [Peptide 1] | 4 | 4 | strong suppression of transcription of all three genes | inhibited the effects of all three kinases
11 | Kineret: FDA-approved recombinant IL-1 receptor antagonist | 4 | 4 | – | –
